According to PMC9223658, “New Borane-Protected Derivatives of α-Aminophosphonous Acid as Anti-Osteosarcoma Agents: ADME Analysis and Molecular Modeling, In Vitro Studies on Anti-Cancer Activities, and NEP Inhibition as a Possible Mechanism of Anti-Proliferative Activity” (International Journal of Molecular Sciences, 2022):
Like-named read-outs stand apart in the source and are kept apart here.

Columns and labels:
[1] = tested on: active caspase 3 in Saos-2 cells; experiment: Active caspase 3 assay (flow cytometry); format: cell-based, human; conditions: Saos-2, 12.5 µM (IC50 concentration), 72 h
Protocol: (§1) The level of active executor caspase 3 and initiator caspase 9 was determined to examine whether compounds 4 and 6 induced apoptosis in the HOS and Saos-2 cells. The influence of compounds 4 and 6 on HOS and Saos-2 were determined with the caspase 3 assay, whereas the influence of compound 6 on the HOS cells was investigated with the caspase 9 assay. In both assays, the osteosarcoma cells (3.0 × 10^5 cells/mL) were seeded in 6-well plates. The cells were treated with compounds 4 and 6 at concentrations of 12.5, 25, 50 µM and 20, 40, 80 µM as well as 15, 30, 60 µM and 21.25, 42.5, 85 µM for 72 h, respectively. The solutions of the compounds were prepared in a medium with 2% FBS. […] Next, floating and adherent cells were harvested and subjected to further steps of the staining procedures according to the manufacturer’s instruction. The level of active caspase 3 and caspase 9 was determined using the PE Active Caspase-3 Apoptosis Kit (BD Pharmingen^TM) and the CaspaTag^TM Caspase-9 in Situ Assay Kit (Millipore, Darmstadt, Germany), respectively. The number of stained cells (active caspase 3- or 9-positive cells) was measured using FACS Calibur, and the obtained data were analyzed using Cell Quest Pro Version 6.0. for the Macintosh operating system (BD Pharmingen™). The presented results were calculated as a percent of cells with either active caspase 3 or 9 among all the analyzed cells.

[2] = tested on: active caspase 3 in HOS cells; experiment: Active caspase 3 assay (flow cytometry); format: cell-based, human; conditions: 3.5 µM (IC50 concentration), 72 h
Protocol: as §1

[3] = tested on: osteosarcoma Saos-2 cells; experiment: MTT proliferation assay, 96 h; format: cell-based, human; conditions: MTT, 10% FBS, read-out: IC50 (µM ± SD) Saos-2
Protocol: (§2) One of the features specific totumor cells is the unlimited potential for proliferation. […] To this end, the assay conditions were established suchthat they encourage the proliferation of OS cells, i.e., the cell cultures at low density were incubated with compounds diluted in the growth medium (10% FBS) for an extended time of 96 h. Additionally, cisplatin, i.e., a common cytostatic used in osteosarcoma treatment, was included as a positive control in this study. Moreover, since the new generation of anti-cancer compounds is highly desired to be inert (non-cytotoxic) towards normal cells, the influence of compounds 1–7 on the viability of human normal cells (osteoblasts hFOB 1.19 and colon fibroblasts CCD-18Co) was also determined.To this end, the assay conditions were established such that they restrict the proliferation of OS cells and to establish whether the compounds have cytotoxic potential, i.e., the cell cultures were incubated with compounds diluted in the medium with a reduced concentration of FBS (2%) for a shortened time of 24 h. […] However, this activity varied depending on both the types of the compounds and the osteosarcoma cell lines (Table 4).
(§3) The anti-proliferative activity of compounds 1–7 against the HOS and Saos-2 osteosarcoma cells and the viability of the human normal hFOB 1.19 and CCD-18Co cells were screened by means of the MTT method. This method is commonly used to assess cell viability and proliferation or to determine the cytotoxicity of any compounds. It is a reliable method for this purpose because it is based on measurement of the level reduction in MTT dye to formazan byNAD(P)H-dependent oxidoreductase enzymes of metabolically active cells.
(§4) To assess the anti-proliferative activity of compounds 1–7 against the HOS and Saos-2 osteosarcoma cells, 3.0 × 10^4 cells/mLseeded (low density culture) into 96-well plates (Nunc, Roskilde, Denmark) were incubated with each compound at concentrations of 3.125, 6.25, 12.5, 25, 50, 100 and 200 µM prepared in medium with 10% FBS (growth medium) for 96 h. Additionally, cisplatin (Sigma Aldrich), i.e., a common cytostatic used in osteosarcoma treatment, was included as a positive control in this study. It was tested in the same conditions as compounds 1–7. The negative control was constituted by the untreated cells (0 µM). Next, the MTT assay was carried out as described previously.
(§5) The results of these assays were calculated as a percent of the untreated cells (100%; control). Then, the IC50 (concentration resulting in 50% inhibition of proliferation) and CC50 (concentration resulting in a 50% decrease in viability) values were calculated from a non-linear regression (log(inhibitor) vs. normalized response-variable slope) using GraphPad Prism 5.0 (GraphPAD Software Inc., San Diego, CA, USA). The IC50 and CC50 results were presented as themean ± SD of at least three experiments. In the case of the BrdU assay, the results were presented as a percent of untreated cells (100%; control).

[4] = tested on: osteosarcoma HOS cells; experiment: MTT proliferation assay, 96 h; format: cell-based, human; conditions: proliferation, 10% FBS, read-out: IC50 (µM ± SD) HOS
Protocol: as §2, §3, §4, §5

[5] = tested on: active caspase 9 in HOS cells; experiment: Active caspase 9 assay (flow cytometry); format: cell-based, human; conditions: 3.5 µM (IC50 concentration), 72 h
Protocol: as §1

[6] = MTT viability assay, 24 h; format: cell-based; conditions: human, 2% FBS
Protocol: as §2, §3
To assess the viability of human normal cells, confluent hFOB 1.19 (3 × 10^5 cells/mL) and CCD-18Co (1 × 10^5 cells/mL) cells seeded in 96-well plates (Nunc) were incubated with compounds 1–7 at concentrations of 3.125, 6.25, 12.5, 25, 50, 100 and 200 µM prepared in medium with 2% FBS (maintaining medium) for 24 h. The control was constituted by the untreated cells (0 µM). Next, the MTT assay was carried out as described previously.
as §5

[7] = tested on: Saos-2 cells; experiment: BrdU proliferation assay, 96 h; format: cell-based, human; conditions: for decrease in proliferation: 96 h
Protocol: (§6) In the study on the implication of NEP in the anti-proliferative activity of compound 4, cell proliferation was determined with the BrdU assay. Cell cultures were prepared as described above. Depending on the requirements, the HOS and Saos-2 cells were treated with non-cytotoxic concentrations of the NEP inhibitor—thiorphan (1, 5, 20, 100, 200, 500 µM) or pre-treated with thiorphan (100 µM) for 1 h. In this scheme, compound 4 (HOS—25 µM; Saos-2—60 µM) was added alone or in combination with the NEP inhibitor into the cell cultures. Finally, cell proliferation was evaluated with the BrdU Cell Proliferation Assay according to the manufacturer’s instructions (Millipore, Darmstadt, Germany) after a 96-h incubation.
as §5

[8] = tested on: HOS cells; experiment: BrdU proliferation assay, 96 h; format: cell-based, human; conditions: for decrease in proliferation: 96 h
Protocol: as §6, §5

[9] = target: T1, NEP (neprilysin) (Homo sapiens, UniProt P08473); experiment: Neutral endopeptidase activity assay (fluorometric); format: biochemical
T1 construct: purchased BioVision, Waltham, MA, USA
T1 sequence (P08473 whole entry): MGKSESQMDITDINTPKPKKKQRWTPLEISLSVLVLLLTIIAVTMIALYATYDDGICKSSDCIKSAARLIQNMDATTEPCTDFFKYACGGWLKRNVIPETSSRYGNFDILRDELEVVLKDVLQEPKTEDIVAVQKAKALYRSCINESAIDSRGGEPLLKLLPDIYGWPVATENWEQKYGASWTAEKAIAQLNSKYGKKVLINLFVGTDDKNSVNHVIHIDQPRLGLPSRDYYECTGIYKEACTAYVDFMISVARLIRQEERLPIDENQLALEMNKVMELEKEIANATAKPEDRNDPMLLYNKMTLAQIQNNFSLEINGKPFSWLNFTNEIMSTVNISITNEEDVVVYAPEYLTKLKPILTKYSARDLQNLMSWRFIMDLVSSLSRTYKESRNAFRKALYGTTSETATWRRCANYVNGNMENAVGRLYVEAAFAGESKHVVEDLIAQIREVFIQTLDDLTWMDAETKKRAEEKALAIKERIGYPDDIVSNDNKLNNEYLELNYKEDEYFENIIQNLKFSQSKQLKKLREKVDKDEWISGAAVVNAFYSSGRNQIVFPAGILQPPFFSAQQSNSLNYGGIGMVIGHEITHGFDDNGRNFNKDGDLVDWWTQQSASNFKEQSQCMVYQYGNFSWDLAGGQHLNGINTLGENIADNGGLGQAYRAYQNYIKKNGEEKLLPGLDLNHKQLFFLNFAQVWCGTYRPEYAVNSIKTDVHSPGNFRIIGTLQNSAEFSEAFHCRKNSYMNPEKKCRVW
Protocol: The NEP activity in the presence of compounds 4 and 6 was determined using the Neprilysin Activity Assay Kit (BioVision, Waltham, MA, USA) according to the manufacturer’s instructions. The measurement is based on the ability of active neprilysin to cleave a synthetic substrate (Abz-based peptide) to release a fluorophore, which can be easily quantified using a fluorescence microplate reader. Briefly, pure neprilysin (5µLof stock solution) was incubated with solutions of the tested compounds (at least 4 concentrations in the range of 0.01–50 µM) for 10 min at 37 °C. The reaction was started by adding the substrate solution, and the final sample volume was 100µL. Fluorescence was measured (Ex/Em = 330/430nm) in the kinetic mode at 37 °C for 1–2 h. The same procedure was used to measure the control and background sample. Thiorphan was used as a reference NEP inhibitor. NEP activity was determined with the prepared Abz standard curve and expressed in µU/mL. The experiments were performed at least in triplicates, and the graphs represent mean ±SD values.

[10] = normal osteoblasts hFOB 1.19 cells, read-out: CC50 (µM ± SD) hFOB 1.19
[11] = Homo sapiens, SAOS-2, proliferation

Row | SMILES | IC50 [3, 11] [µM] | IC50 ([4]; Homo sapiens, HOS) [µM] | CC50 at 24 h [6, 10] [µM] | further results
1 | [NH2][Pt]([NH2])([Cl])[Cl] [CDDP, cisplatin, reference compound] |  |  |  | increase in active caspase 3 vs untreated cells [1]: approx. 9%; increase in active caspase 3 vs untreated cells [2]: approx. 13%; IC50 ([3]; proliferation): 12.8 ± 3.7 µM; IC50 [4]: 3.5 ± 0.92 µM; increase in active caspase 9 vs untreated cells [5]: approx. 10%
2 | [BH3-][P+](OC(C)C)(OC(C)C)C(C)(C)O [Compound 2, 1-hydroxy-1-methylethylphosphonous acid-borane diisopropyl ester] | 83.4 ± 18.4 | 344 ± 142 | 182 ± 28.1 | 
3 | [BH3-][P+](Cc1ccccc1)(OC(C)C)OC(C)C [Compound 1, benzylphosphonous acid-borane diisopropyl ester] | 91 ± 19.4 | 164 ± 79.5 | 161 ± 22.9 | 
4 | O=C(O)CNC(=O)C(CS)Cc1ccccc1 (stereo not drawn) [thiorphan, N-[2-(mercaptomethyl)-1-oxo-3-phenylpropyl]glycine] |  |  |  | effect on proliferation ([7]; Saos-2, 100 µM): did not affect cell proliferation; decrease in proliferation ([7]; Saos-2, 200 µM): 35%; decrease in proliferation ([7]; Saos-2, 500 µM): 60%; effect on proliferation ([8]; 100 µM): did not affect cell proliferation; decrease in proliferation ([8]; 200 µM): approx. 30%; decrease in proliferation ([8]; 500 µM): ~40%; decrease in NEP activity ([9]; 0.0005 µM): approx. 30%; decrease in NEP activity ([9]; 0.005 µM): approx. 50%; decrease in NEP activity ([9]; 0.01 µM): ~60%

More lines, main results first:

Row | IC50 [3, 11] [µM] | IC50 ([4]; Homo sapiens, HOS) [µM] | SMILES | CC50 at 24 h [6, 10] [µM] | further results
5 | 109 ± 15.8 | 51.2 ± 18.6 | [BH3-][P+](OC(C)C)(OC(C)C)C(Nc1ccc(Br)cc1)c1ccc(OC)cc1 (stereo not drawn) [Compound 7, [1-(N-p-bromophenylamino)]-1-(p-anisyl)methylphosphonous acid-borane diisopropyl ester] | 214 ± 39.5 | 
6 | 96 ± 3.3 | 79.5 ± 22.9 | [BH3-][P+](OC(C)C)(OC(C)C)C(Nc1ccc(O)cc1)c1ccccc1 (stereo not drawn) [Compound 5] | 43.9 ± 3.5 | CC50 at 24 h ([6]; normal colon fibroblasts CCD-18Co cells, read-out: CC50 (µM ± SD) CCD-18Co): 62.5 ± 36.2 µM
7 | 79.6 ± 13.6 | 226 ± 3.56 | [BH3-][P+](OC(C)C)(N(CC)CC)C(C)(C)O (stereo not drawn) [Compound 3, 1-hydroxy-1-methylethylphosphonous acid-borane isopropyl ester N,N-diethylamide] | 224 ± 95.3 | 
